Test results reported in PMC9403976, “Elucidating the path to Plasmodium prolyl-tRNA synthetase inhibitors that overcome halofuginone resistance” (Nature Communications, 2022).
Values joined by “and” are separate entries in the source; they are usually repeats but may differ in a detail not shown here. Identical values can stand only once. Like-named read-outs stand apart in the source and are kept apart here.

Columns and labels:
P. falciparum Dd2-2D4 = assay: P. falciparum asexual blood stage (ABS) growth assay, SYBR Green, 72 h, wild-type parasites; format: cell-based, Plasmodium falciparum; details: Plasmodium falciparum, DD2; SI Fig 16b; values on -log scale; read-out: ABS - Dd2-2D4 (converted)
PfcProRS = molecular target: T1, PfcProRS (Plasmodium falciparum, UniProt Q8I5R7); format: binding; details: for dose-response signal (normalized), SI Fig 8: single replicates
T1 construct: made in house; host or cells: E. coli SoluBL-21
T1 sequence (Q8I5R7 249-746): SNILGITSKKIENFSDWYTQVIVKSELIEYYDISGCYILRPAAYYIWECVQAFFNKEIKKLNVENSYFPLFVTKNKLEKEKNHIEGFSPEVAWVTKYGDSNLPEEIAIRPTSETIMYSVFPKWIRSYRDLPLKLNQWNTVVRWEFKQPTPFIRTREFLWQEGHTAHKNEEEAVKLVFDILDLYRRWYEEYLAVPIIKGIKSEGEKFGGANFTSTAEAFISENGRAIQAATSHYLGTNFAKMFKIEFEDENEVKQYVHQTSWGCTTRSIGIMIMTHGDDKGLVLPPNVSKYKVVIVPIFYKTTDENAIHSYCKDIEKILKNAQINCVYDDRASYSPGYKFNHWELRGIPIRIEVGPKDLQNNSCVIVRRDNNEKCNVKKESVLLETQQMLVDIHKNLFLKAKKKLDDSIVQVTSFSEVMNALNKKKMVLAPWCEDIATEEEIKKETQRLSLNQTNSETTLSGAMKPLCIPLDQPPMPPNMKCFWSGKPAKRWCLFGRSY

HsProRS = HsProRS (Homo sapiens, UniProt P07814); assay: TR-FRET ligand displacement assay with tracer MAT379 (CoraFluor-1-Halo and anti-His6 antibody formats); format: binding; design: made in house; host or cells: E. coli SoluBL-21; details: for TR-FRET dose-response, normalized signal (SI Fig 11): individual replicates
Sequence of HsProRS (P07814 996-1512): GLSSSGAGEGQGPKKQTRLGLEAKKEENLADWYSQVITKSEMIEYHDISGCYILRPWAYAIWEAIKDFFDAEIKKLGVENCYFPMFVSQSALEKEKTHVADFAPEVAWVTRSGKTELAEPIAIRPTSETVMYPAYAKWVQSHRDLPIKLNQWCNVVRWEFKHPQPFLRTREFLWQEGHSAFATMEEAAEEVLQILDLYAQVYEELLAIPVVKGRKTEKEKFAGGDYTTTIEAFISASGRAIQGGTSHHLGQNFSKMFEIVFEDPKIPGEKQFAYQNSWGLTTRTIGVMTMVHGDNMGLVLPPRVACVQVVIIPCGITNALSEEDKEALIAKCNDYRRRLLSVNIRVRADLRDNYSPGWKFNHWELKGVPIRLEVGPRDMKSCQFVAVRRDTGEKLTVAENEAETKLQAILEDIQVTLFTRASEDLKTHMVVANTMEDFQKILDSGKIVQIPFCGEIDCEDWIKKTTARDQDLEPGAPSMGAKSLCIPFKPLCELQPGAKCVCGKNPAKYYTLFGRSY

Which EC50 (P. falciparum Dd2-2D4) does the source give for `CC(C)(C)OC(=O)NCC1CCN(C(=O)Nc2nccnc2C(=O)NC2Cc3ccccc3C2)CC1` [compound 9] here?
The EC50 was 6.58 µM.

What about the “dose-response signal (normalized), SI Fig 8” value (PfcProRS; Log[inhibitor] (M) -5.000) of the same compound?
Its value is 8.25E-02 and 7.54E-02 and 9.29E-02.

What about the “dose-response signal (normalized), SI Fig 8” value (PfcProRS; Log[inhibitor] (M) -5.301) of the same compound?
Its value is 2.45E-01 and 1.32E-01 and 2.09E-01.

And the “dose-response signal (normalized), SI Fig 8” value (PfcProRS; Log[inhibitor] (M) -5.601)?
Its value is 4.06E-01 and 4.09E-01 and 3.31E-01.

What about the “dose-response signal (normalized), SI Fig 8” value (PfcProRS; Log[inhibitor] (M) -5.904) of the same compound?
Its value is 5.21E-01 and 6.14E-01 and 5.87E-01.

And the “dose-response signal (normalized), SI Fig 8” value (PfcProRS; Log[inhibitor] (M) -6.208)?
The value was 7.48E-01 and 8.25E-01 and 7.95E-01.

And the “dose-response signal (normalized), SI Fig 8” value (PfcProRS; Log[inhibitor] (M) -6.509)?
Its value is 8.42E-01 and 8.68E-01 and 7.28E-01.

And the “dose-response signal (normalized), SI Fig 8” value (PfcProRS; Log[inhibitor] (M) -6.796)?
Its value is 9.11E-01 and 1.04E+00 and 1.02E+00.

What about the “dose-response signal (normalized), SI Fig 8” value (PfcProRS; Log[inhibitor] (M) -7.108) of the same compound?
The value was 9.58E-01 and 9.39E-01 and 1.04E+00.

What about the “dose-response signal (normalized), SI Fig 8” value (PfcProRS; Log[inhibitor] (M) -7.409) of the same compound?
The value was 9.93E-01 and 1.06E+00 (2×).

And the “dose-response signal (normalized), SI Fig 8” value (PfcProRS; Log[inhibitor] (M) -7.710)?
The value was 1.14E+00 and 1.04E+00 and 9.88E-01.

And the “dose-response signal (normalized), SI Fig 8” value (PfcProRS; Log[inhibitor] (M) -8.000)?
The value was 9.88E-01 and 1.04E+00 and 1.02E+00.

And the “dose-response signal (normalized), SI Fig 8” value (PfcProRS; Log[inhibitor] (M) -8.301)?
The value was 9.59E-01 and 9.72E-01 and 9.39E-01.

And the “dose-response signal (normalized), SI Fig 8” value (PfcProRS; Log[inhibitor] (M) -8.602)?
Its value is 9.15E-01 and 9.90E-01 and 9.70E-01.

And the “dose-response signal (normalized), SI Fig 8” value (PfcProRS; Log[inhibitor] (M) -9.000)?
The value was 9.95E-01 and 1.01E+00 and 9.84E-01.

And the “dose-response signal (normalized), SI Fig 8” value (PfcProRS; Log[inhibitor] (M) -9.301)?
The value was 1.06E+00 and 9.86E-01 and 9.57E-01.

What about the “PfcProRS -- best Kd” value (PfcProRS; SI Fig 16a, values on -log scale) of the same compound?
The value was 6.452.

What about the “HsProRS % signal at 10 μM, + 100 μM proline” value (HsProRS; + 100 μM proline, 10 μM) of the same compound?
Its value is 51.7%.

What about the Kd (HsProRS; HsProRS (KD [nM]) mean, no added proline/ATP (-)) of the same compound?
The Kd was 2510 nM.

What about the “normalized TR-FRET ligand displacement signal, dose-response replicates (SI Fig 6)” value (HsProRS; Log[inhibitor] (M) -5.000) of the same compound?
Its value is 3.85E-02 and 1.39E-01 and 8.67E-02.

What about the “TR-FRET dose-response, normalized signal (SI Fig 11)” value (HsProRS; Log[inhibitor] (M) -5.000) of the same compound?
Its value is 2.52E-01 and 2.44E-01 and 2.56E-01.

What about the “normalized TR-FRET ligand displacement signal, dose-response replicates (SI Fig 6)” value (HsProRS; Log[inhibitor] (M) -5.301) of the same compound?
The value was 2.62E-01 and 9.25E-02 and 2.11E-01.

And the “TR-FRET dose-response, normalized signal (SI Fig 11)” value (HsProRS; Log[inhibitor] (M) -5.301)?
The value was 3.68E-01 and 3.83E-01 and 3.86E-01.

And the “normalized TR-FRET ligand displacement signal, dose-response replicates (SI Fig 6)” value (HsProRS; Log[inhibitor] (M) -5.601)?
The value was 2.47E-01 and 2.95E-01 and 3.23E-01.

And the “TR-FRET dose-response, normalized signal (SI Fig 11)” value (HsProRS; Log[inhibitor] (M) -5.601)?
The value was 5.41E-01 and 5.42E-01 and 6.20E-01.

What about the “normalized TR-FRET ligand displacement signal, dose-response replicates (SI Fig 6)” value (HsProRS; Log[inhibitor] (M) -5.904) of the same compound?
Its value is 5.08E-01 and 5.80E-01 and 5.13E-01.

What about the “TR-FRET dose-response, normalized signal (SI Fig 11)” value (HsProRS; Log[inhibitor] (M) -5.904) of the same compound?
Its value is 6.85E-01 and 6.21E-01 and 6.49E-01.

What about the “normalized TR-FRET ligand displacement signal, dose-response replicates (SI Fig 6)” value (HsProRS; Log[inhibitor] (M) -6.208) of the same compound?
Its value is 7.02E-01 and 7.67E-01 and 6.77E-01.

And the “TR-FRET dose-response, normalized signal (SI Fig 11)” value (HsProRS; Log[inhibitor] (M) -6.208)?
Its value is 7.39E-01 and 7.74E-01 and 7.75E-01.

And the “normalized TR-FRET ligand displacement signal, dose-response replicates (SI Fig 6)” value (HsProRS; Log[inhibitor] (M) -6.509)?
The value was 8.58E-01 and 7.92E-01 and 7.62E-01.

What about the “TR-FRET dose-response, normalized signal (SI Fig 11)” value (HsProRS; Log[inhibitor] (M) -6.509) of the same compound?
The value was 8.32E-01 and 8.29E-01 and 7.90E-01.

What about the “normalized TR-FRET ligand displacement signal, dose-response replicates (SI Fig 6)” value (HsProRS; Log[inhibitor] (M) -6.796) of the same compound?
Its value is 9.92E-01 and 1.07E+00 and 1.01E+00.

And the “TR-FRET dose-response, normalized signal (SI Fig 11)” value (HsProRS; Log[inhibitor] (M) -6.796)?
The value was 8.79E-01 and 8.03E-01 and 8.17E-01.

What about the “normalized TR-FRET ligand displacement signal, dose-response replicates (SI Fig 6)” value (HsProRS; Log[inhibitor] (M) -7.108) of the same compound?
Its value is 8.83E-01 and 1.03E+00 and 1.07E+00.

And the “TR-FRET dose-response, normalized signal (SI Fig 11)” value (HsProRS; Log[inhibitor] (M) -7.108)?
Its value is 8.15E-01 and 8.66E-01 and 8.33E-01.

What about the “normalized TR-FRET ligand displacement signal, dose-response replicates (SI Fig 6)” value (HsProRS; Log[inhibitor] (M) -7.409) of the same compound?
The value was 9.70E-01 and 9.46E-01 and 9.42E-01.

What about the “TR-FRET dose-response, normalized signal (SI Fig 11)” value (HsProRS; Log[inhibitor] (M) -7.409) of the same compound?
Its value is 8.81E-01 and 9.27E-01 and 8.52E-01.

What about the “normalized TR-FRET ligand displacement signal, dose-response replicates (SI Fig 6)” value (HsProRS; Log[inhibitor] (M) -7.710) of the same compound?
The value was 9.63E-01 and 9.72E-01 and 1.02E+00.

What about the “TR-FRET dose-response, normalized signal (SI Fig 11)” value (HsProRS; Log[inhibitor] (M) -7.710) of the same compound?
The value was 8.59E-01 and 8.71E-01 and 8.69E-01.

And the “normalized TR-FRET ligand displacement signal, dose-response replicates (SI Fig 6)” value (HsProRS; Log[inhibitor] (M) -8.000)?
The value was 9.31E-01 and 9.57E-01 and 9.75E-01.

And the “TR-FRET dose-response, normalized signal (SI Fig 11)” value (HsProRS; Log[inhibitor] (M) -8.000)?
Its value is 9.54E-01 and 9.12E-01 and 8.65E-01.

What about the “normalized TR-FRET ligand displacement signal, dose-response replicates (SI Fig 6)” value (HsProRS; Log[inhibitor] (M) -8.301) of the same compound?
The value was 9.41E-01 and 8.96E-01 and 8.89E-01.

What about the “TR-FRET dose-response, normalized signal (SI Fig 11)” value (HsProRS; Log[inhibitor] (M) -8.301) of the same compound?
Its value is 9.04E-01 and 9.25E-01 and 8.91E-01.

And the “normalized TR-FRET ligand displacement signal, dose-response replicates (SI Fig 6)” value (HsProRS; Log[inhibitor] (M) -8.602)?
The value was 9.58E-01 and 9.45E-01 and 9.24E-01.

What about the “TR-FRET dose-response, normalized signal (SI Fig 11)” value (HsProRS; Log[inhibitor] (M) -8.602) of the same compound?
Its value is 9.14E-01 and 8.78E-01 and 9.05E-01.

What about the “normalized TR-FRET ligand displacement signal, dose-response replicates (SI Fig 6)” value (HsProRS; Log[inhibitor] (M) -9.000) of the same compound?
Its value is 1.05E+00 and 8.77E-01 and 8.55E-01.

What about the “TR-FRET dose-response, normalized signal (SI Fig 11)” value (HsProRS; Log[inhibitor] (M) -9.000) of the same compound?
Its value is 8.65E-01 and 8.66E-01 and 9.64E-01.

And the “normalized TR-FRET ligand displacement signal, dose-response replicates (SI Fig 6)” value (HsProRS; Log[inhibitor] (M) -9.301)?
Its value is 8.65E-01 and 9.01E-01 and 8.87E-01.

What about the “TR-FRET dose-response, normalized signal (SI Fig 11)” value (HsProRS; Log[inhibitor] (M) -9.301) of the same compound?
Its value is 9.03E-01 and 9.18E-01 and 8.96E-01.
